The Kinase Knowledgebase extract (Sharma et al. 2016)

What was measured:
MAPK14 (human) = MAPK14 (human) (UniProt Q16539); assay: Inhibition of LPS Induced TNF-alpha Release in Human PBMC
MAPK14 (murine) = assay: Inhibition of MAPK14 Kinase Activity

Chain of MAPK14 (human) (Q16539 whole entry, looked up): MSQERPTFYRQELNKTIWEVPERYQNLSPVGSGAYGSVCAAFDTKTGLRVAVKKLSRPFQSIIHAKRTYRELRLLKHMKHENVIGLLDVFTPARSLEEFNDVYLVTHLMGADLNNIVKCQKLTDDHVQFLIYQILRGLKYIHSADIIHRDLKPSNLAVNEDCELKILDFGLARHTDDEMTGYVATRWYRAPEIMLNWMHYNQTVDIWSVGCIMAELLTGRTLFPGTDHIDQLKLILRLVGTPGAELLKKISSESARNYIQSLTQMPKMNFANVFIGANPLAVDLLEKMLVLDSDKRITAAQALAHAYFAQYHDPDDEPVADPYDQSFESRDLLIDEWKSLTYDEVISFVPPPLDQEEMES

Compound	IC50 (MAPK14 (human))	IC50 (MAPK14 (murine))
Fc1ccc(-c2nc(C3CCNCC3)oc2-c2ccnc(NC3CCCCC3)c2)cc1	0.2 nM	15 nM
CN1CCC(O)(c2nc(-c3ccc(F)cc3)c(-c3ccncc3)s2)CC1	–	450 nM
CN1CCC(O)(c2nc(-c3ccc(F)cc3)c(-c3ccncc3)o2)CC1	–	350 nM
CN1CCC(O)(c2nc(-c3ccc(F)cc3)c(-c3ccncc3)[nH]2)CC1	–	90 nM
Fc1ccc(-c2nc(C3CCNCC3)oc2-c2ccnc(NC3CCCCC3)n2)cc1	9 nM	11 nM
C[C@H](Nc1cc(-c2sc(C3CCNCC3)nc2-c2ccc(F)cc2)ccn1)c1ccccc1	–	4 nM
C[C@@H](Nc1nccc(-n2c(-c3ccc(F)cc3)nc3nc(N4CCN(C)CC4)ccc32)n1)c1ccccc1	1 nM	6 nM
